Source: PMC5218480 (PLoS ONE, 2017)

Tested on: MV-4-11 cells
Experiment: Gene expression microarray analysis (Affymetrix PrimeView) and GSEA
Type: cell-based, human
Design: RFU PODN (11730768_x_at) / Fold change /veh PODN (11730768_x_at) / RFU LINC00158 (11744669_a_at) / Fold change /veh LINC00158 (11744669_a_at) / RFU DUSP10 (11751237_a_at) / Fold change /veh DUSP10 (11751237_a_at) / RFU ID3 (11757404_x_at) / Fold change /veh ID3 (11757404_x_at) / RFU PLEKHG5 (11737974_s_at) / Fold change /veh PLEKHG5 (11737974_s_at) / RFU LRRC4B (11730491_at) / Fold change /veh LRRC4B (11730491_at) / RFU GIMAP4 (11747438_a_at) / Fold change /veh GIMAP4 (11747438_a_at) / RFU KRT8 (11758183_x_at) / Fold change /veh KRT8 (11758183_x_at) / RFU CNN1 (11734310_a_at) / Fold change /veh CNN1 (11734310_a_at) / RFU VPS37D (11726825_at) / Fold change /veh VPS37D (11726825_at) / RFU C10orf10 (11716522_x_at) / Fold change /veh C10orf10 (11716522_x_at) / RFU KIR2DL2 /// KIR2DL4 /// KIR2DL5A /// KIR2DL5B /// KIR2DS1 /// KIR2DS2 /// KIR2DS3 /// KIR2DS4 /// KIR3DL3 /// KIR3DL3 /// KIR3DS1 (11738374_at) / Fold change /veh KIR2DL2 /// KIR2DL4 /// KIR2DL5A /// KIR2DL5B /// KIR2DS1 /// KIR2DS2 /// KIR2DS3 /// KIR2DS4 /// KIR3DL3 /// KIR3DL3 /// KIR3DS1 (11738374_at) / RFU C1QL1 (11718748_at) / Fold change /veh C1QL1 (11718748_at) / RFU TMPRSS4 (11747572_a_at) / Fold change /veh TMPRSS4 (11747572_a_at) / RFU HAMP (11756126_x_at) / Fold change /veh HAMP (11756126_x_at) / RFU RNFT2 (11725882_a_at) / Fold change /veh RNFT2 (11725882_a_at) / RFU NR4A2 (11747474_a_at) / Fold change /veh NR4A2 (11747474_a_at) / RFU ABCC12 (11746883_a_at) / Fold change /veh ABCC12 (11746883_a_at) / RFU TMEM136 (11760407_x_at) / Fold change /veh TMEM136 (11760407_x_at) / RFU CLDN22 /// WWC2 (11732394_at) / Fold change /veh CLDN22 /// WWC2 (11732394_at) / RFU HLA-DPB1 (11760878_x_at) / Fold change /veh HLA-DPB1 (11760878_x_at) / RFU SPINT1 (11716480_a_at) / Fold change /veh SPINT1 (11716480_a_at) / RFU GAP43 (11754022_s_at) / Fold change /veh GAP43 (11754022_s_at) / RFU A4GNT (11735810_at) / Fold change /veh A4GNT (11735810_at) / RFU PRB3 (11715151_x_at) / Fold change /veh PRB3 (11715151_x_at) / RFU TUBB4B (11761932_at) / Fold change /veh TUBB4B (11761932_at) / RFU CAPN14 (11732068_a_at) / Fold change /veh CAPN14 (11732068_a_at) / RFU TMCC2 (11721928_a_at) / Fold change /veh TMCC2 (11721928_a_at) / RFU IRGQ (11745062_a_at) / Fold change /veh IRGQ (11745062_a_at) / RFU FAM174B (11720279_a_at) / Fold change /veh FAM174B (11720279_a_at) / RFU TMPRSS4 (11748680_a_at) / Fold change /veh TMPRSS4 (11748680_a_at) / RFU FAM212B (11763350_a_at) / Fold change /veh FAM212B (11763350_a_at) / RFU PLEKHG5 (11743358_a_at) / Fold change /veh PLEKHG5 (11743358_a_at) / RFU ZSCAN30 (11745921_a_at) / Fold change /veh ZSCAN30 (11745921_a_at) / RFU CMKLR1 (11741424_a_at) / Fold change /veh CMKLR1 (11741424_a_at) / RFU LOC101060620 /// MAPK8IP1 (11723275_at) / Fold change /veh LOC101060620 /// MAPK8IP1 (11723275_at) / RFU SPTSSB (11747773_x_at) / Fold change /veh SPTSSB (11747773_x_at) / RFU PRSS12 (11739890_at) / Fold change /veh PRSS12 (11739890_at) / RFU BIN1 (11741810_x_at) / Fold change /veh BIN1 (11741810_x_at) / RFU WNT11 (11732464_a_at) / Fold change /veh WNT11 (11732464_a_at) / RFU C10orf10 (11716521_a_at) / Fold change /veh C10orf10 (11716521_a_at) / RFU C5orf56 (11738089_at) / Fold change /veh C5orf56 (11738089_at) / RFU CYB561 (11721691_x_at) / Fold change /veh CYB561 (11721691_x_at) / RFU ANKRD19P (11752326_a_at) / Fold change /veh ANKRD19P (11752326_a_at) / RFU OR2T12 /// OR2T33 /// OR2T8 (11738714_s_at) / Fold change /veh OR2T12 /// OR2T33 /// OR2T8 (11738714_s_at) / RFU VCAN (11748164_a_at) / Fold change /veh VCAN (11748164_a_at) / RFU JSRP1 (11732532_at) / Fold change /veh JSRP1 (11732532_at) / RFU KRTAP10-11 (11738290_x_at) / Fold change /veh KRTAP10-11 (11738290_x_at) / RFU MYO3A (11730013_a_at) / Fold change /veh MYO3A (11730013_a_at) / RFU EBF3 (11725865_a_at) / Fold change /veh EBF3 (11725865_a_at) / RFU CAMK2N1 (11719241_x_at) / Fold change /veh CAMK2N1 (11719241_x_at) / RFU C5orf56 (11738088_a_at) / Fold change /veh C5orf56 (11738088_a_at) / RFU OLFML3 (11715873_a_at) / Fold change /veh OLFML3 (11715873_a_at) / RFU LOC100653217 /// NTM (11731650_a_at) / Fold change /veh LOC100653217 /// NTM (11731650_a_at) / RFU MAPK11 (11762145_a_at) / Fold change /veh MAPK11 (11762145_a_at) / RFU FIZ1 (11724087_x_at) / Fold change /veh FIZ1 (11724087_x_at) / RFU OASL (11726364_x_at) / Fold change /veh OASL (11726364_x_at) / RFU SOX15 (11748057_x_at) / Fold change /veh SOX15 (11748057_x_at) / RFU CD79A (11719716_a_at) / Fold change /veh CD79A (11719716_a_at) / RFU HIST1H1D (11736915_at) / Fold change /veh HIST1H1D (11736915_at) / RFU CASKIN2 (11723855_a_at) / Fold change /veh CASKIN2 (11723855_a_at) / RFU LOC730098 (11760151_x_at) / Fold change /veh LOC730098 (11760151_x_at) / RFU OR4N2 (11742367_at) / Fold change /veh OR4N2 (11742367_at) / RFU PRRT2 (11749266_a_at) / Fold change /veh PRRT2 (11749266_a_at) / RFU SNX32 (11753110_a_at) / Fold change /veh SNX32 (11753110_a_at) / RFU CDHR5 (11726645_a_at) / Fold change /veh CDHR5 (11726645_a_at) / RFU RCAN1 (11760418_a_at) / Fold change /veh RCAN1 (11760418_a_at) / RFU FAM167A (11723789_a_at) / Fold change /veh FAM167A (11723789_a_at) / RFU FAM26E (11764081_at) / Fold change /veh FAM26E (11764081_at) / RFU ISYNA1 (11749810_s_at) / Fold change /veh ISYNA1 (11749810_s_at) / RFU ACY1 (11761880_at) / Fold change /veh ACY1 (11761880_at) / RFU 11764098_at / Fold change /veh 11764098_at / RFU SAMD14 (11745864_x_at) / Fold change /veh SAMD14 (11745864_x_at) / RFU NPB (11741838_a_at) / Fold change /veh NPB (11741838_a_at) / RFU TMPRSS6 (11731388_a_at) / Fold change /veh TMPRSS6 (11731388_a_at) / RFU KRTAP10-2 (11738614_at) / Fold change /veh KRTAP10-2 (11738614_at) / RFU ARHGAP8 /// PRR5-ARHGAP8 (11727945_x_at) / Fold change /veh ARHGAP8 /// PRR5-ARHGAP8 (11727945_x_at) / RFU KRTAP5-7 /// NADSYN1 (11734609_at) / Fold change /veh KRTAP5-7 /// NADSYN1 (11734609_at) / RFU RASL12 (11751679_a_at) / Fold change /veh RASL12 (11751679_a_at) / RFU CDKN2B (11736163_a_at) / Fold change /veh CDKN2B (11736163_a_at) / RFU PRF1 (11729649_at) / Fold change /veh PRF1 (11729649_at) / RFU, ZNF638 /// ZNF638-IT1 / Fold change vs veh, ZNF638 /// ZNF638-IT1 / RFU, PANK3 / Fold change vs veh, PANK3 / RFU, SH3YL1 / Fold change vs veh, SH3YL1 / RFU, ZEB2 / Fold change vs veh, ZEB2 / RFU, NRIP1 / Fold change vs veh, NRIP1 / RFU, PTTG1IP / Fold change vs veh, PTTG1IP / RFU, CAPN2 / Fold change vs veh, CAPN2 / RFU, MED14 / Fold change vs veh, MED14 / RFU, SNORA58 / Fold change vs veh, SNORA58 / RFU, C1orf63 / Fold change vs veh, C1orf63 / RFU, LRRFIP1 / Fold change vs veh, LRRFIP1 / RFU, NDUFAF7 / Fold change vs veh, NDUFAF7 / RFU, SLC12A2 / Fold change vs veh, SLC12A2 / RFU, IBTK / Fold change vs veh, IBTK / RFU, ESF1 / Fold change vs veh, ESF1 / Fold change vs veh, TMEM50B / RFU, TAOK1 / Fold change vs veh, TAOK1 / RFU, ACBD3 / Fold change vs veh, ACBD3 / RFU, TMA16 / Fold change vs veh, TMA16 / RFU, RWDD3 / Fold change vs veh, RWDD3 / RFU, BCAT1 / Fold change vs veh, BCAT1 / RFU, EDEM3 / Fold change vs veh, EDEM3 / RFU, TMEM33 / Fold change vs veh, TMEM33 / RFU, WDR75 / Fold change vs veh, WDR75 / RFU, AHCTF1 / Fold change vs veh, AHCTF1 / RFU, TFRC / Fold change vs veh, TFRC / RFU, ZDHHC17 / Fold change vs veh, ZDHHC17 / RFU, NOM1 / Fold change vs veh, NOM1 / RFU, ARL8B / Fold change vs veh, ARL8B / RFU, ZBTB11 / Fold change vs veh, ZBTB11 / RFU, TAMM41 / Fold change vs veh, TAMM41 / RFU, KIAA1704 /// LOC100996395 / Fold change vs veh, KIAA1704 /// LOC100996395 / RFU, ING1 / Fold change vs veh, ING1 / RFU, TRMT61B / Fold change vs veh, TRMT61B / RFU, FUBP3 / Fold change vs veh, FUBP3 / RFU, TP53 / Fold change vs veh, TP53 / RFU, TNKS2 / Fold change vs veh, TNKS2 / RFU, ZFP14 / Fold change vs veh, ZFP14 / RFU, ACTR2 / Fold change vs veh, ACTR2 / RFU, PPP3R1 / Fold change vs veh, PPP3R1 / RFU, PIK3R1 / Fold change vs veh, PIK3R1 / RFU, HNRNPA1 / Fold change vs veh, HNRNPA1 / RFU, RNF170 / Fold change vs veh, RNF170 / RFU, ZNF28 / Fold change vs veh, ZNF28 / RFU, RNGTT / Fold change vs veh, RNGTT / RFU, OGT / Fold change vs veh, OGT / RFU, BRD1 / Fold change vs veh, BRD1 / RFU, MARS / Fold change vs veh, MARS / RFU, ZNF655 / Fold change vs veh, ZNF655 / RFU, FAHD1 / Fold change vs veh, FAHD1 / RFU, BDP1 / Fold change vs veh, BDP1 / RFU, LRRCC1 / Fold change vs veh, LRRCC1 / RFU, ARID1A / Fold change vs veh, ARID1A / RFU, ZNF146 / Fold change vs veh, ZNF146 / RFU, ZNF330 / Fold change vs veh, ZNF330 / RFU, GPN3 / Fold change vs veh, GPN3 / RFU, C9orf123 / Fold change vs veh, C9orf123 / RFU, N4BP2L2 / Fold change vs veh, N4BP2L2 / RFU, ARFIP1 / Fold change vs veh, ARFIP1 / RFU, FAM179B / Fold change vs veh, FAM179B / RFU, BCL10 / Fold change vs veh, BCL10 / RFU, UHRF1BP1L / Fold change vs veh, UHRF1BP1L / RFU, BET1 / Fold change vs veh, BET1 / RFU, CNOT2 / Fold change vs veh, CNOT2 / RFU, ZNF268 / Fold change vs veh, ZNF268 / Fold change vs veh, ZNF507 / RFU, DGCR2 / Fold change vs veh, DGCR2 / RFU, WDSUB1 / Fold change vs veh, WDSUB1 / Fold change vs veh, HSP90B1 /// MIR3652 / RFU, ADSS / Fold change vs veh, ADSS / RFU, GK / Fold change vs veh, GK / RFU, ZNF148 / Fold change vs veh, ZNF148 / RFU, TAF9 / Fold change vs veh, TAF9 / RFU, SLC1A5 / Fold change vs veh, SLC1A5 / RFU, SLMO2 / Fold change vs veh, SLMO2 / RFU, ABCC4 / Fold change vs veh, ABCC4 / RFU, LOC101060439 /// RAP1B / Fold change vs veh, LOC101060439 /// RAP1B / RFU, RFX7 / Fold change vs veh, RFX7 / RFU, GTPBP10 / Fold change vs veh, GTPBP10 / RFU, CNEP1R1 / Fold change vs veh, CNEP1R1 / RFU, BIVM-ERCC5 /// ERCC5 / Fold change vs veh, BIVM-ERCC5 /// ERCC5 / RFU, ILF3 / Fold change vs veh, ILF3 / RFU 11762660_at / Fold change /veh 11762660_at / RFU VCAN (11757783_s_at) / Fold change /veh VCAN (11757783_s_at) / RFU DDX43 (11728927_at) / Fold change /veh DDX43 (11728927_at) / RFU KRT8 (11758188_x_at) / Fold change /veh KRT8 (11758188_x_at) / RFU NKD1 (11759106_at) / Fold change /veh NKD1 (11759106_at) / RFU SRD5A1 (11742802_a_at) / Fold change /veh SRD5A1 (11742802_a_at) / RFU TPSAB1 /// TPSB2 (11721975_s_at) / Fold change /veh TPSAB1 /// TPSB2 (11721975_s_at) / RFU GSTM3 (11746129_a_at) / Fold change /veh GSTM3 (11746129_a_at) / RFU IL23R (11737362_x_at) / Fold change /veh IL23R (11737362_x_at) / RFU TMEM51 (11727254_a_at) / Fold change /veh TMEM51 (11727254_a_at) / RFU PIWIL2 (11732686_x_at) / Fold change /veh PIWIL2 (11732686_x_at) / RFU ORM1 (11744905_x_at) / Fold change /veh ORM1 (11744905_x_at) / RFU CCDC152 (11743942_at) / Fold change /veh CCDC152 (11743942_at) / RFU ECM1 (11717891_a_at) / Fold change /veh ECM1 (11717891_a_at) / RFU IL23R (11748794_a_at) / Fold change /veh IL23R (11748794_a_at) / RFU TNFAIP8L3 (11732012_x_at) / Fold change /veh TNFAIP8L3 (11732012_x_at) / RFU MBOAT4 (11741988_at) / Fold change /veh MBOAT4 (11741988_at) / RFU 11764193_at / Fold change /veh 11764193_at / RFU TMEM53 (11763286_at) / Fold change /veh TMEM53 (11763286_at) / RFU MAGEB2 (11727129_at) / Fold change /veh MAGEB2 (11727129_at) / RFU TMEM200A (11744735_a_at) / Fold change /veh TMEM200A (11744735_a_at) / RFU CCDC152 (11751479_a_at) / Fold change /veh CCDC152 (11751479_a_at) / RFU FAM211A (11726209_a_at) / Fold change /veh FAM211A (11726209_a_at) / RFU RGS16 (11746705_a_at) / Fold change /veh RGS16 (11746705_a_at) / RFU VCAN (11755009_s_at) / Fold change /veh VCAN (11755009_s_at) / RFU RHOB (11743442_s_at) / Fold change /veh RHOB (11743442_s_at) / RFU RGS16 (11720943_a_at) / Fold change /veh RGS16 (11720943_a_at) / RFU RGS16 (11720944_at) / Fold change /veh RGS16 (11720944_at) / RFU, VPS4B / Fold change vs veh, VPS4B / RFU, CREB1 / Fold change vs veh, CREB1 / RFU, DNAJC13 / Fold change vs veh, DNAJC13 / RFU, GNAQ / Fold change vs veh, GNAQ / RFU, CDK5R1 / Fold change vs veh, CDK5R1 / RFU, ZRANB3 / Fold change vs veh, ZRANB3 / RFU, CUL4A / Fold change vs veh, CUL4A / RFU, CCNY / Fold change vs veh, CCNY / RFU, UFL1 / Fold change vs veh, UFL1 / RFU, COG3 / Fold change vs veh, COG3 / RFU, DIAPH2 / Fold change vs veh, DIAPH2 / RFU, SKA2 / Fold change vs veh, SKA2 / RFU, AFF3 / Fold change vs veh, AFF3 / RFU, LMF1 / Fold change vs veh, LMF1 / RFU, IPO11 / Fold change vs veh, IPO11 / RFU, DFFB / Fold change vs veh, DFFB / RFU, FOXP1 / Fold change vs veh, FOXP1 / RFU, CARD8 / Fold change vs veh, CARD8 / RFU, STRN3 / Fold change vs veh, STRN3 / RFU, ADK / Fold change vs veh, ADK / RFU, RASSF2 / Fold change vs veh, RASSF2 / RFU, WIPF1 / Fold change vs veh, WIPF1 / RFU, LARP1B / Fold change vs veh, LARP1B / RFU, RASA1 / Fold change vs veh, RASA1 / RFU, RB1 / Fold change vs veh, RB1 / RFU, PPFIA1 / Fold change vs veh, PPFIA1 / RFU, MAT2A / Fold change vs veh, MAT2A / RFU, CCT5 / Fold change vs veh, CCT5 / RFU, WDR92 / Fold change vs veh, WDR92 / RFU, CUX1 / Fold change vs veh, CUX1 / RFU, TTC7A / Fold change vs veh, TTC7A / RFU, TMEM135 / Fold change vs veh, TMEM135 / RFU, DEPTOR / Fold change vs veh, DEPTOR / RFU, CPM / Fold change vs veh, CPM / RFU, DNAJB6 / Fold change vs veh, DNAJB6 / RFU, CACNA2D3 / Fold change vs veh, CACNA2D3 / RFU, DTX4 / Fold change vs veh, DTX4 / RFU, TFCP2 / Fold change vs veh, TFCP2 / RFU, GMCL1 /// GMCL1P1 / Fold change vs veh, GMCL1 /// GMCL1P1 / RFU, AEBP2 / Fold change vs veh, AEBP2 / RFU, SNHG1 /// SNORD22 /// SNORD25 /// SNORD26 /// SNORD27 /// SNORD28 /// SNORD29 /// SNORD31 / Fold change vs veh, SNHG1 /// SNORD22 /// SNORD25 /// SNORD26 /// SNORD27 /// SNORD28 /// SNORD29 /// SNORD31 / Fold change (Aza/veh), C12orf56 (ProbeSet 11735607_a_at) / Fold change (ACY-1035/veh), C12orf56 (ProbeSet 11735607_a_at) / Fold change (Aza/veh), FGFR1OP (ProbeSet 11751329_s_at) / Fold change (ACY-1035/veh), FGFR1OP (ProbeSet 11751329_s_at) / Fold change (Aza/veh), VPS36 (ProbeSet 11739960_a_at) / Fold change (ACY-1035/veh), VPS36 (ProbeSet 11739960_a_at) / RFU SYPL1 (11715823_x_at) / Fold change /veh SYPL1 (11715823_x_at) / RFU IGFBP7 (11715501_s_at) / Fold change /veh IGFBP7 (11715501_s_at) / RFU REEP3 (11722064_at) / Fold change /veh REEP3 (11722064_at) / RFU IGLL1 (11728026_x_at) / Fold change /veh IGLL1 (11728026_x_at): dose or concentration left out as unconfirmed
Conditions: MV-4-11 cells, 48 hours

Nc1ncn([C@@H]2O[C@H](CO)[C@@H](O)[C@H]2O)c(=O)n1 [azacitidine]
Fold change /veh RHOB (11743442_s_at): 1.27
